Test results as given in PubChem BioAssay (NCI).
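Five concentrations, 48 hours, 96-well plates. Definition used: TGI = concentration required for complete inhibition of growth.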

Tests used:
Test in all cases: NCI-60 cell line screen, 48 h
[1] = system: SF-539 CNS
[2] = system: MCF7 breast
[3] = system: UACC-257 melanoma
[4] = system: IGROV1 ovarian
[5] = system: SR leukemia
[6] = system: SF-268 CNS
[7] = system: TK-10 renal
[8] = system: UO-31 renal
[9] = system: RPMI-8226 leukemia
[10] = system: SNB-75 CNS
[11] = system: SK-MEL-2 melanoma
[12] = system: SN12C renal
[13] = system: HCT-15 colon
[14] = system: SW-620 colon
[15] = system: SNB-19 CNS
[16] = system: NCI/ADR-RES ovarian
[17] = system: SK-MEL-5 melanoma
[18] = system: KM12 colon
[19] = system: HOP-62 NSCLC
[20] = system: COLO 205 colon
[21] = system: ACHN renal
[22] = system: M14 melanoma
[23] = system: DU-145 prostate
[24] = system: LOX IMVI melanoma
[25] = system: MDA-MB-231 breast
[26] = system: MDA-MB-435
[27] = system: CAKI-1 renal
[28] = system: NCI-H460 lung
[29] = system: MDA-N
[30] = system: T-47D breast
[31] = system: A549 NSCLC
[32] = system: BT-549 breast
[33] = system: HCC-2998 colon
[34] = system: OVCAR-8 ovarian
[35] = system: A498 renal
[36] = system: NCI-H522 lung
[37] = system: EKVX NSCLC
[38] = system: K-562 leukemia
[39] = system: HL-60(TB) leukemia
[40] = system: NCI-H23 lung
[41] = system: HT29 colon
[42] = system: PC-3 prostate
[43] = system: HOP-92 NSCLC
[44] = system: SK-OV-3 ovarian
[45] = system: 786-0 renal
[46] = system: OVCAR-5 ovarian
[47] = system: HS 578T breast
[48] = system: NCI-H226 lung
[49] = system: OVCAR-4 ovarian
[50] = system: SF-295 CNS
[51] = system: OVCAR-3 ovarian
[52] = system: UACC-62 melanoma
[53] = system: SK-MEL-28 melanoma
[54] = system: HCT-116 colon
[55] = system: U251 CNS

COc1cc([C@H]2OC[C@H]3[C@@H]2CO[C@@H]3c2cc(OC)c3c(c2)OCO3)cc(OC)c1OC
TGI [1]: > 100 µM | TGI [2]: > 100 µM | TGI [3]: > 100 µM | TGI [4]: > 100 µM | TGI [5]: > 100 µM | TGI [6]: > 100 µM | TGI [7]: > 100 µM | TGI [8]: > 100 µM | TGI [9]: > 100 µM | TGI [10]: > 100 µM | TGI [11]: > 100 µM | TGI [12]: > 100 µM | TGI [13]: > 100 µM | TGI [14]: > 100 µM | TGI [15]: > 100 µM | TGI [16]: > 100 µM | TGI [17]: 48.7 µM | TGI [18]: > 100 µM | TGI [19]: > 100 µM | TGI [20]: > 100 µM | TGI [21]: > 100 µM | TGI [22]: > 100 µM | TGI [23]: > 100 µM | TGI [24]: > 100 µM | TGI [25]: > 100 µM | TGI [26]: > 100 µM | TGI [27]: > 100 µM | TGI [28]: > 100 µM | TGI [29]: > 100 µM | TGI [30]: > 100 µM | TGI [31]: > 100 µM | TGI [32]: > 100 µM | TGI [33]: > 100 µM | TGI [34]: > 100 µM | TGI [35]: > 100 µM | TGI [36]: > 100 µM | TGI [37]: > 100 µM | TGI [38]: > 100 µM | TGI [39]: > 100 µM | TGI [40]: > 100 µM | TGI [41]: > 100 µM | TGI [42]: > 100 µM | TGI [43]: > 100 µM | TGI [44]: > 100 µM | TGI [45]: > 100 µM | TGI [46]: > 100 µM | TGI [47]: > 100 µM | TGI [48]: > 100 µM | TGI [49]: > 100 µM | TGI [50]: > 100 µM | TGI [51]: > 100 µM | TGI [52]: > 100 µM | TGI [53]: > 100 µM | TGI [54]: > 100 µM | TGI [55]: > 100 µM
